Experimental findings from patent US20230151065A1, “MULTI-DISULFIDE-BOND LONG-CHAIN PEPTIDE WITH NEURO[…], PHARMACEUTICAL COMPOSITION AND APPLICATION” (priority 2018, published 2023) are described below.

Where no end group is shown, it is not given here.

Assay type in all cases: cell-based
Assay [1] deals with primary cultured SD fetal rat cortical neurons after OGD damage. The experiment in a line: OGD damage of cortical neurons, Western blot of apoptosis-related proteins. For orientation: A western blot detects proteins with antibodies after separation by electrophoresis.
For assay [2] the test system is unchanged. The experiment in a line: OGD damage of cortical neurons, mitochondrial membrane potential (JC-1, flow cytometer). The note with it: OGD 2 h, 24 h reoxygenation; ABPPk2 8, 40, 200 ng/ml; obvious dose-effect relationship. On the procedure: The suspension was filtered with a 400-mesh screen, centrifuged at 1000 rpm for 5 min, and blown to form the single cell suspension. DMEM high glucose complete medium (containing 10% fetal bovine serum) was inoculated in a culture dish or culture plate pre-coated with polylysine (PLL) to culture in 5% CO2 incubator with saturated humidity at 37° C. After the cells were cultured for 4 h to adhere to the wall, the cells were cultured with neuron culture medium (neurobasal+2% B27) for 3 d to observe the growth of neurons. The culture medium containing cytarabine (the final concentration of cytarabine was 2.5 μg/ml) was substituted with half quantity to culture for 3d to inhibit the growth of glial cells and miscellaneous cells to obtain purely cultured primary cortical nerve cells. The purity of the cortical neurons was identified by immunocytochemical staining as more than 90%. […]
(5) Effect of ABPPk2 on mitochondrial membrane potential of cortical neurons after OGD damage: cortical neurons were inoculated in a 6-well plate at 1×10^6 cells/ml; 2 ml of cell suspension was added to each well; and the cortical neurons were cultured to the 7th day. […] The mitochondrial membrane potential of the cortical neurons after OGD damage was detected by a JC-1 staining kit and a flow cytometer. […]
In general terms: In flow cytometry, cells or beads pass a laser one at a time.

In assay [3] the test system is primary fetal rat hippocampal neurons. The experiment in a line: Growth of hippocampal neurons, live cell station. The note with it: ABPPk2 100 ng/ml, observed for 48 h. On the procedure: (1) Primary culture of fetal rat hippocampal neurons: after a rat pregnant for 17 days was anesthetized, a fetal rat was taken out under sterile conditions; the brain of the fetal rat was taken out on ice; the hippocampus was carefully taken out under a dissecting microscope; and the blood vessel membranes were removed. 0.125% trypsin/EDTA was digested at 37° C. for 10 min, and the digestion was stopped by adding the DMEM complete medium containing 10% FBS. Cell debris were removed through centrifugal at 1000 rpm for 5 min; the DMEM complete medium was added to resuspend the cells; the cells were gently blown until a single cell suspension was formed; and the cells were inoculated at an appropriate density on a culture plate (dish) pre-coated with polylysine (PLL) and cultured at 37° C., 5% CO2 incubator. After 4 h, the cells were adhered to the wall; the DMEM complete medium was discarded and replaced with neurobasal medium containing different concentrations of ABPPk2 (the concentrations of ABPPk2 were 4 ng/ml, 20 ng/ml and 100 ng/ml); the neurobasal medium containing 10 ng/ml BDNF was used as the positive control group, and neurobasal was used as the negative control group.
(3) Neuron growth was observed by a live cell station: the hippocampal neuron single cell suspension obtained in (1) was inoculated on a culture plate pre-coated with PLL at a cell density of 5×10^5. […]

Setting [4] is: after OGD damage and treatment with ABPPk2.
Setting [5] is: total protein, ABPPk2 medium-dose (40 ng/ml) and high-dose (200 ng/ml) groups vs OGD damage group.

For the substance “Cys-Leu-Glu-Ser-Gly-Thr-Ser-Cys-Ile-Pro-Gly-Ala-Gln-His-Asn-Cys-Cys-Ser-Gly-Val-Cys-Val-Pro-Ile-Val-Thr-Ile-Phe-Tyr-Gly-Val-Cys-Tyr (CLESGTSCIPGAQHNCCSGVCVPIVTIFYGVCY; disulfide (positions not given here); not fully specified (bridges); also: three disulfide bonds, pairing not given here) [ABPPk2, 33 amino acid polypeptide isolated from the extract of Achyranthes bidentata Blume, three pairs of disulfide bonds]”, in assay [1] (setting [4]), the “expression of AIF in mitochondria” value was “significantly up-regulated”, the “expression of AIF in the nucleus” value is reported as “significantly down-regulated”, the “expression of Cyt C in cytoplasma” value is “significantly down-regulated” and the “expression of Cyt C in mitochondria” value is recorded as “significantly up-regulated”. In addition, the Bcl-2 expression entry in assay [1] (total protein, ABPPk2 high-dose group (200 ng/ml) vs OGD damage group) is “significantly up-regulated”. In assay [1] (setting [5]), the Bax expression entry is on record as “significantly down-regulated” and the “Cleaved caspase-3 expression” value is given as “significantly down-regulated”. Moreover, the mitochondrial membrane potential result in assay [2] is “can alleviate the decline in mitochondrial membrane potential”. For the same substance, in assay [3], the “growth of hippocampal neurons (live cell station)” value was “can promote the growth of the hippocampal neurons and the extension of neurites”.
